This note sets out measurements from publication PMC4100786 (Biochemistry, 2014).

For the test, the target named is ISWI (Xenopus laevis, UniProt Q9DF71). The class given is binding.
ISWI, sequence (Q9DF71 1-1046): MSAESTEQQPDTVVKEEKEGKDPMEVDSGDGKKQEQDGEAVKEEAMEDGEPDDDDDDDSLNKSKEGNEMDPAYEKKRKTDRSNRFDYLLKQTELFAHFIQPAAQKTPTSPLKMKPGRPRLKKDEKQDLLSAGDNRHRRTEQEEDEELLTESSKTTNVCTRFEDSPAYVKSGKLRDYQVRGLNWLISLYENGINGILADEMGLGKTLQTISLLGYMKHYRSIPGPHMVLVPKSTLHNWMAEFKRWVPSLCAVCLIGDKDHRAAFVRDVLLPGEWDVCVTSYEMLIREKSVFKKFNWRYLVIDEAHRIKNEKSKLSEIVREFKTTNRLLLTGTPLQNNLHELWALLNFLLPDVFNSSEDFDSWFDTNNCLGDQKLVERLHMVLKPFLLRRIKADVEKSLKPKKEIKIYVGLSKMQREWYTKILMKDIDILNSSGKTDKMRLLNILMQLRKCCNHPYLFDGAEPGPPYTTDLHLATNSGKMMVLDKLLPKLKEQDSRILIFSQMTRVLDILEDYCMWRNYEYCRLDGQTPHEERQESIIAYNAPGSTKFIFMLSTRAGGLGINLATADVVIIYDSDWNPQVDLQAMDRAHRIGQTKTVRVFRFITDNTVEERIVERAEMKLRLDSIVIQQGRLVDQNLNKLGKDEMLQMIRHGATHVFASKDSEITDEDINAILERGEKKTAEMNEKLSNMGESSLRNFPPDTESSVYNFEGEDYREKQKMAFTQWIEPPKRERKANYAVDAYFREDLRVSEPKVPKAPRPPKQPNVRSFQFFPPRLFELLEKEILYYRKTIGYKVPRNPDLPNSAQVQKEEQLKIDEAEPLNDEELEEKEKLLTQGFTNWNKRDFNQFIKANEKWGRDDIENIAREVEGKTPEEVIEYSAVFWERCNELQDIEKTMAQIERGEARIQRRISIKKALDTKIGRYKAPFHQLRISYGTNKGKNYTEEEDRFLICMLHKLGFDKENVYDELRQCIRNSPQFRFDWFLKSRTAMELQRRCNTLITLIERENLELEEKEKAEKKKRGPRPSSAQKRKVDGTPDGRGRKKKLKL

As a reminder, the Kd is the free concentration of one partner at which half of the binding sites on the other are occupied at equilibrium, for simple one-to-one binding. Low values mean tighter binding, high ones weaker binding. In the case of `Nc1ncnc2c1ncn2[C@@H]1O[C@H](CO[P@](=O)(O)O[P@](=O)(O)O[P@@](=O)(O)S)[C@@H](O)[C@H]1O` [ATP-γ-S], the Kd was determined as 140 ± 30 µM.
